molecular target: SARS-CoV-2 Mpro (Severe acute respiratory syndrome coronavirus 2, UniProt P0DTD1); test: SARS-CoV-2 Mpro enzymatic inhibition assay (fluorescence); assay type: biochemical; details: not given
Procedure: The hCoV Mpro are cloned, expressed in E. coli and purified by WuXi AppTec Co., Ltd. The substrate are synthesized by Genscript Biotech.
Compounds are 3 fold serially diluted for 10 doses and added to an assay plate (384w format) using ECHO, in duplicate wells. The test concentration of test compounds is defined by sponsor.
25 μL of Mpro proteins are added to the assay plates containing compounds, respectively, using Multidrop. The compounds and Mpro proteins are pre-incubated at room temperature for 30 min. Then 5 µL of Mpro substrates are added to the related assay plates, respectively.
After 60 min incubation at 30° C., the fluorescence signal (RFU) is detected using a microplate reader M2e (SpectraMax) at Ex/Em=340 nm/490 nm.
The inhibition activity is calculated using the formula below, IC50 values will be calculated using the Inhibition % data.
IC50 values of compounds are calculated with the GraphPad Prism software using the nonlinear regression model of log(inhibitor) vs. response—Variable slope (four parameters).

Structure (SMILES) | IC50 [nM]
CC1(C)[C@@H]2[C@@H](C(=O)N[C@H](C=O)C[C@@H]3CCNC3=O)N(C(=O)c3cc4c(C5CC5)cccc4[nH]3)C[C@@H]21 [Compound 41, (1R,2S,5S)-3-(4-Cyclopropyl-1H-indole-2-carbonyl)-6,6-dimethyl-N—((S)-1-oxo-3-((S)-2-oxopyrrolidin-3-yl)propan-2-yl)-3-azabicyclo[3.1.0]hexane-2-carboxamide] | 21.8
CC1(C)[C@@H]2[C@@H](C(=O)N[C@H](C=O)C[C@@H]3CCNC3=O)N(C(=O)c3cc4ccc(Cl)cc4[nH]3)C[C@@H]21 [Compound 42, (1R,2S,5S)-3-(6-Chloro-1H-indole-2-carbonyl)-6,6-dimethyl-N—((S)-1-oxo-3-((S)-2-oxopyrrolidin-3-yl)propan-2-yl)-3-azabicyclo[3.1.0]hexane-2-carboxamide] | 22.1
CC1(C)[C@@H]2[C@@H](C(=O)N[C@H](C=O)C[C@@H]3CCNC3=O)N(C(=O)c3cc4cc(Cl)cc(Cl)c4[nH]3)C[C@@H]21 [Compound 44, (1R,2S,5S)-3-(5,7-Dichloro-1H-indole-2-carbonyl)-6,6-dimethyl-N—((S)-1-oxo-3-((S)-2-oxopyrrolidin-3-yl)propan-2-yl)-3-azabicyclo[3.1.0]hexane-2-carboxamide] | 22.2
CC1(C)[C@@H]2[C@@H](C(=O)N[C@@H](C[C@@H]3CCNC3=O)C(=O)C(=O)NC3CC3)N(C(=O)C3(c4cccc(Cl)c4)CC3)C[C@@H]21 [Compound 45, (1R,2S,5S)-3-(1-(3-Chlorophenyl)cyclopropanecarbonyl)-N—((S)-4-(cyclopropylamino)-3,4-dioxo-1-((S)-2-oxopyrrolidin-3-yl)butan-2-yl)-6,6-dimethyl-3-azabicyclo[3.1.0]hexane-2-carboxamide] | 22.5
N#Cc1cccc2cc(C(=O)N3CC4(CC4)C[C@H]3C(=O)N[C@H](C=O)C[C@@H]3CCNC3=O)[nH]c12 [Compound 46, (S)-5-(7-cyano-1H-indole-2-carbonyl)-N—((S)-1-oxo-3-((S)-2-oxopyrrolidin-3-yl)propan-2-yl)-5-azaspiro[2.4]heptane-6-carboxamide] | 22.5
CC(C)Oc1cccc2[nH]c(C(=O)N3C[C@H]4[C@@H]([C@H]3C(=O)N[C@H](C=O)C[C@@H]3CCNC3=O)C4(C)C)cc12 [Compound 66, (1R,2S,5S)-3-(4-Isopropoxy-1H-indole-2-carbonyl)-6,6-dimethyl-N—((S)-1-oxo-3-((S)-2-oxopyrrolidin-3-yl)propan-2-yl)-3-azabicyclo[3.1.0]hexane-2-carboxamide] | 27.6
COc1ccc2[nH]c(C(=O)N3C[C@H]4[C@@H]([C@H]3C(=O)N[C@H](C=O)C[C@@H]3CCNC3=O)C4(C)C)cc2c1 [Compound 68, (1R,2S,5S)-3-(5-Methoxy-1H-indole-2-carbonyl)-6,6-dimethyl-N—((S)-1-oxo-3-((S)-2-oxopyrrolidin-3-yl)propan-2-yl)-3-azabicyclo[3.1.0]hexane-2-carboxamide] | 28
CCOc1cccc2[nH]c(C(=O)N3C[C@H]4[C@@H]([C@H]3C(=O)N[C@H](C=O)C[C@@H]3CCNC3=O)C4(C)C)cc12 [Compound 70, (1R,2S,5S)-3-(4-Ethoxy-1H-indole-2-carbonyl)-6,6-dimethyl-N—((S)-1-oxo-3-((S)-2-oxopyrrolidin-3-yl)propan-2-yl)-3-azabicyclo[3.1.0]hexane-2-carboxamide] | 30.1
O=C[C@H](C[C@@H]1CCNC1=O)NC(=O)[C@@H]1CC2(CC2)CN1C(=O)c1cc2cccc(F)c2[nH]1 [Compound 87, (S)-5-(7-Fluoro-1H-indole-2-carbonyl)-N—((S)-1-oxo-3-((S)-2-oxopyrrolidin-3-yl)propan-2-yl)-5-azaspiro[2.4]heptane-6-carboxamide] | 40.1

same assay, conditions: mean; 25 nM protein, 25 μM substrate; 30 min pre-incubation, 60 min at 30° C.; read-out: Mpro_SARS-CoV-2 mean IC50

Structure (SMILES) | IC50 [nM]
CC1(C)C[C@@H](C(=O)N[C@H](C=O)C[C@@H]2CCNC2=O)N(C(=O)c2cc3ccccc3[nH]2)C1 [Compound 57, (S)-1-(1H-Indole-2-carbonyl)-4,4-dimethyl-N—((S)-1-oxo-3-((S)-2-oxopyrrolidin-3-yl)propan-2-yl)pyrrolidine-2-carboxamid] | 25.8
